Paper PMC4552634, “A New Set of Chemical Starting Points with Plasmodium falciparum Transmission-Blocking Potential for Antimalarial Drug Discovery” (PLoS ONE, 2015)
pIC50: −log10 of the molar value. Like-named read-outs stand apart in the source and are kept apart here.

What was measured:
[1] = tested on: P. falciparum asexual stages; details: TCAMS data, cited from earlier work; for pIC50: asexual stages, read-out: IC50 asexual; for IC50: P. falciparum asexual stages, read-out: IC50 (µM) Pf asexual stages
[2] = tested on: P. falciparum stage V gametocytes; assay: Gametocytocidal ATP bioluminescence assay (single point 5 μM and 1 μM, dose-response); assay type: cell-based, Plasmodium falciparum; details: for Ratio IC50 HepG2/IC50 P. falciparum: IC50 HepG2 divided by IC50 P. falciparum gametocytes; for IC50: P. falciparum gametocytes, average, read-out: IC50 Pf Gametocytes average, IC50 (µM) average; for pIC50: sexual stages (gametocytes), dose-response, read-out: IC50 sexual
Method: Purified stage IV-V gametocytes were obtained as previously described [10]. Single point ATP bioluminescence assay and dose–response of positive hits was determined in accordance with the previously published protocol [10].

[3] = tested on: HepG2 cells; assay: Cytotoxicity in HepG2 cells (intracellular ATP, ATPlite, 48 h); assay type: cell-based, human; details: IC50 HepG2 divided by IC50 P. falciparum gametocytes
[4] = as above; assay type: cell-based, human; details: human, HepG2 cells
[5] = IC50 per ratio column head, unit inferred, read-out: Cytotoxicity in HepG2
[6] = HepG2, 48 h exposure, intracellular ATP, read-out: IC50 (μM) Cytotoxicity HepG2
[7] = IC50 per ratio column head, unit inferred

Row | SMILES | pIC50 [1] | Ratio IC50 HepG2/IC50 P. falciparum [2] | IC50 ([2]; Plasmodium falciparum) | Ratio IC50 HepG2/IC50 P. falciparum [3] | IC50 at 48 h [4, 5] | pIC50 [2] | IC50 [1] | pIC50 ([2]; Plasmodium falciparum) | IC50 at 48 h [4, 6] | pIC50 [4, 7]
1 | CC(C)CCNC(=N)Nc1ccc(OCCCOc2ccc(NC(=N)NCCC(C)C)cc2)cc1 [TCMDC-137615] | 6.70 | >86 | 0.29 µM | >86 | > 25 µM |  |  |  |  | 
2 | Cc1cccc2nc(-c3ccc(-c4ccc(CNCc5ccc(CN)cc5)cc4)s3)[nH]c12 [TCMDC-132809] | 6.35 | 28 | 0.86 µM | 28 | 24 µM | 6.07 |  |  |  | 
3 | CC(C)(C)c1ccc(CN2CCC(CNC(=O)c3cc(-c4cccc(Cl)c4)cs3)C2)cc1 (stereo not shown) [TCMDC-134446] | 5.94 | 19 | 0.61 µM | 19 | 11.3 µM |  | 1.16 µM | 6.22 | 11 µM | 
4 | CCOc1ccc2nc3cc(NC(=O)c4ccco4)ccc3c(N)c2c1 [TCMDC-125004] | 6.10 | 56 | 0.19 µM | 56 | 10.3 µM |  | 0.8 µM | 6.73 | 10 µM | 
5 | N=C(N=C(NCCCCCCNC(=NC(=N)Nc1ccc(Cl)cc1)N1CCCCC1)N1CCCCC1)Nc1ccc(Cl)cc1 [TCMDC-131811] | 6.59 | 61 | 0.38 µM | 61 | 22.9 µM | 6.43 |  |  |  | 
6 | Cc1sc2ncnc(Sc3nnc(N)s3)c2c1C [TCMDC-124542] | 6.40 | >83 | 0.3 µM | >83 | > 25 µM |  | 0.4 µM |  |  | 
7 | CN1c2ccc([N+](=O)[O-])cc2C(C)(C)C12C=Cc1cc(Br)cc([N+](=O)[O-])c1O2 (stereo not shown) [TCMDC-124178] | 6.11 | >23 | 1.09 µM | >23 |  | 5.96 |  |  |  | < 4.60
8 | N=C(N=C(NCCCCCCNC(=NC(=N)NCc1ccc(Cl)c(Cl)c1)N1CCCCC1)N1CCCCC1)NCc1ccc(Cl)c(Cl)c1 [TCMDC-131816] | 6.25 | >68 | 0.37 µM | >68 | > 25 µM | 6.44 |  |  |  | 
9 | CCN(CC)C(=NC(=N)NCc1ccc(Cl)cc1)NCCCCCCNC(=NC(=N)NCc1ccc(Cl)cc1)N(CC)CC [TCMDC-131817] | 6.64 | >32 | 0.79 µM | >32 | > 25 µM |  |  |  |  | 
10 | N=C(N)Nc1nc(-c2ccc(NC(=O)Nc3cccc(-c4csc(NC(=N)N)n4)c3)cc2)cs1 [TCMDC-139559] | 6.00 | >17 | 1.43 µM | >17 | > 25 µM |  |  |  |  | 
11 | COc1ccc2nc3cc(Cl)ccc3c(NCCCCCCNc3c4ccc(Cl)cc4nc4ccc(OC)cc34)c2c1 [TCMDC-137503] | 6.18 | >500 | 0.05 µM | >500 | > 25 µM |  |  |  |  | 
12 | COc1cc2c(c(Cl)c1OC)CCN(C(=O)C(F)(F)F)CC2c1ccccc1 (stereo not shown) [TCMDC-132071] | 6.36 | >13 | 1.95 µM | >13 | > 25 µM |  | 0.44 µM |  |  | 
13 | CCCCN(CCCC)C(=NC(=N)NCc1ccc(Cl)c(Cl)c1)NCCCCCCNC(=NC(=N)NCc1ccc(Cl)c(Cl)c1)N(CCCC)CCCC [TCMDC-131821] | 6.40 | 20 | 0.62 µM | 20 | 12.4 µM | 6.21 |  |  |  | 
14 | CCN(CC)C(=NC(=N)NCCCCCCNC(=N)N=C(Nc1ccc(Cl)cc1)N(CC)CC)Nc1ccc(Cl)cc1 [TCMDC-131807] | 6.03 | >68 | 0.37 µM | >68 | > 25 µM | 6.44 |  |  |  | 
15 | CC1CCCCN1CCCNc1nc(NCc2ccccc2)c2ccccc2n1 (stereo not shown) [TCMDC-137771] | 6.02 | 143 | 0.14 µM | 143 | 20.1 µM |  | 0.95 µM |  | 20 µM | 
16 | Cc1c(Cn2ncc(N3CCC(N)CC3)c(Cl)c2=O)cccc1NC(=O)Nc1ccc(-c2ccccc2)cc1 [TCMDC-141931] | 6.16 | 12 | 1.18 µM | 12 | 14.5 µM | 5.93 |  |  |  | 
17 | Oc1c(C(Nc2nc3ccccc3s2)c2ccc(OC(F)F)cc2)ccc2cccnc12 (stereo not shown) [TCMDC-124379] | 6.24 | 55 | 0.44 µM | 55 | 24.1 µM |  |  |  |  | 
18 | FC(F)(F)c1ccc2[nH]c(-c3ccc(-c4cccc(CNCCN5CCNCC5)c4)cc3)nc2c1 [TCMDC-132864] | 5.99 | 16 | 1.08 µM | 16 | 17.5 µM |  | 1.03 µM |  | 18 µM | 
19 | Oc1ccc(CCNCCCCCCNCCc2ccc(Cl)c3ccccc23)cc1O [TCMDC-131271] | 6.15 | 25 | 0.53 µM | 25 | 13.5 µM | 6.27 |  |  |  | 
20 | NCc1ccc(CNCc2cccc(-c3ccc(-c4nc5cc(C(F)(F)F)ccc5[nH]4)cc3)c2)cc1 [TCMDC-132811] | 6.58 | 28 | 0.86 µM | 28 | 24.3 µM | 6.07 |  |  |  | 
21 | c1ccc2c(c1)cc(CNCCCN1CCN(CCCNCc3cc4ccccc4c4ccccc34)CC1)c1ccccc12 [TCMDC-137914] | 6.69 | 12 | 1.11 µM | 12 |  |  |  |  |  | 4.86
22 | CC(C)CCNC(=N)Nc1ccc(OCCCCCOc2ccc(NC(=N)NCCC(C)C)cc2)cc1 [TCMDC-137614] | 5.97 | >49 | 0.51 µM | >49 | > 25 µM | 6.29 |  |  |  | 
23 | CC(C)CNCc1cccc(-c2cccc(CN(CCN(C)C)C(=O)Nc3ccccc3)c2)c1 [TCMDC-140592] | 6.10 | 24 | 0.66 µM | 24 | 15.8 µM |  |  |  |  | 
24 | CCCCN(CCCC)CCCCNc1c2ccccc2nc2ccccc12 [TCMDC-137461] | 6.83 | 35 | 0.55 µM | 35 | 19 µM |  |  |  |  | 
25 | CN1CCN(CCCN(Cc2ccc(-c3cccc(CNC4CCCC4)c3)cc2)C(=O)Nc2ccccc2)CC1 [TCMDC-140605] | 5.95 | 81 | 0.18 µM | 81 | 14.3 µM | 6.75 |  |  |  | 
